PubChem BioAssay AID686961 (Sanford-Burnham Center for Chemical Genomics, 2013)
pIC50: −log10 of the molar value. Active and inactive are the calls of the source.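 Rule for the calls: active = IC50 at or below 20 µM; inactive = the rest.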

Molecular target: Dual specificity protein phosphatase 3 (Homo sapiens) (UniProt P51452)
Experiment: human DUSP3 enzyme inhibition – biochemical, fluorescence, OMFP substrate, selectivity assay for LMPTP inhibitor project, dose response (AID 686961)
Conditions: recombinant VHR-1 enzyme, OMFP fluorogenic substrate, 50 min

Dual specificity protein phosphatase 3 (Homo sapiens), sequence (P51452 whole entry, looked up): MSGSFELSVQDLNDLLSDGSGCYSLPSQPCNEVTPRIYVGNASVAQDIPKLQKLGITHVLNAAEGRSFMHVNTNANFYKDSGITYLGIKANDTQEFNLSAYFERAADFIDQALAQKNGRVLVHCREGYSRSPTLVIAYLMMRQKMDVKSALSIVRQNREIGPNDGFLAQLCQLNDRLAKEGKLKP

CC(=O)Nc1ccc(S(=O)(=O)N2CCN(c3nc(NC4CCCC4)c4ccccc4n3)CC2)cc1
pIC50: 4.92

O=C(COc1ccc(/C=N/NC(=O)c2ccc(O)cc2)cc1)Nc1cccc([N+](=O)[O-])c1
pIC50: 5.24

Cc1ccc(-c2nc(NCc3cccnc3)c3ccccc3n2)cc1
IC50: inactive

CCc1nc(N)nc(N)c1-c1ccc(NCCN)c([N+](=O)[O-])c1
pIC50: 4.97

COc1cccc(N2CCN(C(=O)c3ccc(CSc4nc5ccncc5[nH]4)cc3)CC2)c1
pIC50: 4.91

O=C(N/N=C\C=C\c1ccc(Br)cc1)c1ccc2c(c1)OCO2
pIC50: 5.79

Cc1[nH]ccc2cc3nc4ccccc4c3cc12
pIC50: 4.75

O=C(CCN1C(=O)/C(=C/c2ccc3c(c2)OCO3)SC1=S)Nc1ccc(C(=O)O)cc1
pIC50: 4.89

Cc1c(CCC(=O)O)c(=O)oc2c(C)c3occ(-c4ccc(Cl)cc4)c3cc12
pIC50: 5.27

c1ccc(-c2cc(N3CCCCC3)c3ccccc3n2)cc1
IC50: > 80 µM (inactive)

CC(C)Oc1ccc(-c2nc(NCC3CCCO3)c3ccccc3n2)cc1 (stereo unspecified)
IC50: inactive

CNc1nc(NC)c2cn[nH]c2n1
IC50: > 80 µM (inactive)

c1ccc(-c2nc(NCc3cccnc3)c3ccccc3n2)cc1
IC50: > 80 µM (inactive)

Cc1ccc(-c2nc(NC(=O)CSc3cc(C)c4ccccc4n3)ns2)cc1
pIC50: 5.90

CC(Nc1nc(N2CCNCC2)nc2ccccc12)c1ccccc1 (stereo unspecified)
pIC50: 5.86

CC(C)OCCCNc1nc(-c2ccccc2)nc2ccccc12
IC50: inactive

Cc1ccccc1Nc1cc(C)c2c(O)cccc2n1
IC50: > 80 µM (inactive)

O=C(OCCNc1nc(-c2ccccc2)nc2ccccc12)c1cccnc1
IC50: > 80 µM (inactive)

CN1/C(=C/C=C/c2n(C)c3cc([N+](=O)[O-])c([N+](=O)[O-])cc3[n+]2C)C(C)(C)c2ccccc21
IC50: inactive

NS(=O)(=O)c1ccc(CCNC(=O)c2ccc3nccnc3c2)cc1
IC50: inactive

CN(C)c1nc(N)nc(/C(C#N)=C/C2CC3C=CC2C3)n1 (stereo unspecified)
IC50: > 80 µM (inactive)

Cc1nc(N)nc(N)c1-c1ccc([N+](=O)[O-])cc1
IC50: > 80 µM (inactive)

CCOC(=O)c1cc(-c2ccc(N3CCOCC3)cc2)nn1-c1ccccc1C(=O)O
pIC50: 5.23

Cc1[nH]ccc(=O)c1Cc1c(Cl)cccc1Cl
IC50: > 80 µM (inactive)

CCN(c1ccccc1)S(=O)(=O)c1cc(C(=O)O)ccc1C
pIC50: 5.69

COc1ccc(Nc2nc(NCc3cccs3)nc3ccsc23)cc1OC
pIC50: 4.91

O=C(OCCNc1nc(-c2ccccc2)nc2ccccc12)c1ccncc1
IC50: > 80 µM (inactive)

COc1cccc(CNc2nc(NCC3CC3)nc3ccsc23)c1OC
pIC50: 4.84

Clc1cccc(Cl)c1Cn1cnc(=NCc2ccco2)c2[nH]cnc21
IC50: inactive

O=C(Nc1ccc2oc(-c3ccccc3F)nc2c1)c1ccc([N+](=O)[O-])o1
pIC50: 5.80

O=C(CCCOc1ccc(Cl)cc1Cl)NNC(=O)c1ccc(NC(=O)c2ccccc2)cc1
pIC50: 6.15

Cc1cc(N2CCN(S(=O)(=O)c3ccc(Cl)c(Cl)c3)CC2)c2ccccc2n1
IC50: inactive

CCOC(=O)C1=C(C)N=c2sc(=Cc3ccc(OCC(=O)O)cc3)c(=O)n2C1c1ccc(SC)cc1 (stereo unspecified)
pIC50: 5.74

c1ccc(-c2nc(NCCCN3CCOCC3)c3ccccc3n2)cc1
IC50: > 80 µM (inactive)

CC(=O)Nc1ccc(CNc2nc(NCc3cccs3)nc3ccsc23)cc1
pIC50: 5.03

CCc1nc(N)nc(N)c1-c1ccc(Cl)cc1
IC50: > 80 µM (inactive)

Cc1cc(N2CCC(C)CC2)nc2cccc(O)c12
pIC50: 4.71

N=c1c(C(=O)NCc2ccc3c(c2)OCO3)cc2c(=O)n3ccccc3nc2n1Cc1cccnc1
pIC50: 4.91

c1ccc(-c2cc(NCCN3CCCCC3)c3ccccc3n2)cc1
pIC50: 4.90

C/C(=N\NC(=O)c1ccc(OC2OCCOC2Oc2ccc(C(=O)N/N=C(\C)c3ccncc3)cc2)cc1)c1ccncc1 (stereo unspecified)
pIC50: 5.22

O=C(/C=C/c1ccc(Br)cc1)NC(=O)c1ccccc1O
pIC50: 4.98

CCOC(=O)Cn1c(=NC(=O)c2sc3ccccc3c2Cl)sc2cc(S(N)(=O)=O)ccc21
pIC50: 6.40

Fc1ccccc1-c1nc(NCCCN2CCOCC2)c2ccccc2n1
IC50: > 80 µM (inactive)

CC1C(=O)N(Cc2cn(Cc3ccco3)nn2)CCS(=O)(=O)N1Cc1ccc(-c2cccnc2)cc1 (stereo unspecified)
pIC50: 6.04

Nc1nc(N)c(Cc2ccc(Cl)cc2Cl)c(N)n1
IC50: inactive

CCOc1cc(/C=N/N=C2/NC(=O)C(CC(=O)O)S2)ccc1OCc1ccc(Cl)cc1Cl (stereo unspecified)
pIC50: 5.48

O=c1cc(-c2cc3ccccc3o2)c2cc(O)ccc2o1
pIC50: 5.25

NC(=O)Cc1ccc(C(=O)CSc2nnc(-c3ccncc3)n2C2CC2)s1
pIC50: 5.83

CCOC(=O)C1=C(C)N=c2sc(=Cc3ccc(OCC(=O)O)cc3)c(=O)n2C1c1ccc(Cl)cc1 (stereo unspecified)
pIC50: 5.58

O=C(/C=C/c1ccccc1Cl)Nc1ccc2c(c1)C(=O)NC2=O
pIC50: 5.64

COc1ccccc1CNc1nc(NCc2ccc(NC(C)=O)cc2)c2sccc2n1
pIC50: 5.25

COc1cccc2c1[C@@H]1CN(CCCCn3c(=O)[nH]c4c(sc5ncc(-c6ccccc6)nc54)c3=O)C[C@@H]1CO2
pIC50: 5.62

COc1ccccc1CNc1nc(NCc2cnc(C)cn2)c2sccc2n1
IC50: inactive

Cc1ccc(-c2nc(NCCN3CCOCC3)c3ccccc3n2)cc1
IC50: > 80 µM (inactive)

CCc1nc(N)nc(N)c1-c1ccc(Cl)c(N=[N+]=[N-])c1
IC50: inactive

O=C(N/N=C/c1cccc(Br)c1)c1ccc(Br)cc1
pIC50: 4.96

O=C(N/N=C/c1ccc(OC(=O)c2cccs2)cc1)c1cccc(F)c1
pIC50: 5.25

CCCCC(=O)Nc1ccc(C(=O)NNC(=O)c2ccc(C)c(Br)c2)cc1
pIC50: 5.42

O=C(NNC(=O)c1cc2cc3ccccc3nc2s1)c1cccc(Cl)c1
pIC50: 5.70

O=C(N/N=C/c1ccc(Br)s1)c1cccc([N+](=O)[O-])c1
pIC50: 5.71

Cc1cccc2nc(-c3ccccc3)nc(N[C@@H](CO)c3ccccc3)c12
IC50: > 80 µM (inactive)

O=C1C(=Cc2cn(-c3ccccc3)nc2-c2ccc(OCc3ccccc3)cc2)SC(=S)N1CCS(=O)(=O)O
pIC50: 6.26

Cc1c(CCC(=O)O)c(=O)oc2c(C)c(OCc3ccccc3Cl)ccc12
IC50: inactive

NS(=O)(=O)c1ccc(CNC(=O)Cc2cccs2)cc1
pIC50: 5.85

Fc1ccccc1-c1nc(NC2CCCC2)c2ccccc2n1
IC50: inactive

COc1ccc(-c2ccc(/C=N/NC(=O)c3cccnc3)o2)c([N+](=O)[O-])c1
pIC50: 5.02

Cc1cccc(-c2nc(NCCCN3CCOCC3)c3ccccc3n2)c1
IC50: > 80 µM (inactive)

Cc1cc2oc(=O)cc(-c3cc4ccccc4o3)c2cc1O
pIC50: 5.54

COCCNc1nc(NCc2cccc(OC)c2OC)c2sccc2n1
IC50: inactive

c1ccc(-c2nc(NCCCn3ccnc3)c3ccccc3n2)cc1
IC50: > 80 µM (inactive)

COc1ccc(Nc2nc(=O)c3cc([N+](=O)[O-])ccc3s2)cc1
pIC50: 5.41
